Measured values as given in the Kinase Knowledgebase extract (Sharma et al. 2016).

These compounds were tested against EGFR (human), P00533 [Inhibition of EGFR(L858RT/790M) Kinase Activity]. Conditions: not given.
Sequence of EGFR (human), P00533 [Inhibition of EGFR(L858RT/790M) Kinase Activity] (P00533 whole entry, looked up, change not shown): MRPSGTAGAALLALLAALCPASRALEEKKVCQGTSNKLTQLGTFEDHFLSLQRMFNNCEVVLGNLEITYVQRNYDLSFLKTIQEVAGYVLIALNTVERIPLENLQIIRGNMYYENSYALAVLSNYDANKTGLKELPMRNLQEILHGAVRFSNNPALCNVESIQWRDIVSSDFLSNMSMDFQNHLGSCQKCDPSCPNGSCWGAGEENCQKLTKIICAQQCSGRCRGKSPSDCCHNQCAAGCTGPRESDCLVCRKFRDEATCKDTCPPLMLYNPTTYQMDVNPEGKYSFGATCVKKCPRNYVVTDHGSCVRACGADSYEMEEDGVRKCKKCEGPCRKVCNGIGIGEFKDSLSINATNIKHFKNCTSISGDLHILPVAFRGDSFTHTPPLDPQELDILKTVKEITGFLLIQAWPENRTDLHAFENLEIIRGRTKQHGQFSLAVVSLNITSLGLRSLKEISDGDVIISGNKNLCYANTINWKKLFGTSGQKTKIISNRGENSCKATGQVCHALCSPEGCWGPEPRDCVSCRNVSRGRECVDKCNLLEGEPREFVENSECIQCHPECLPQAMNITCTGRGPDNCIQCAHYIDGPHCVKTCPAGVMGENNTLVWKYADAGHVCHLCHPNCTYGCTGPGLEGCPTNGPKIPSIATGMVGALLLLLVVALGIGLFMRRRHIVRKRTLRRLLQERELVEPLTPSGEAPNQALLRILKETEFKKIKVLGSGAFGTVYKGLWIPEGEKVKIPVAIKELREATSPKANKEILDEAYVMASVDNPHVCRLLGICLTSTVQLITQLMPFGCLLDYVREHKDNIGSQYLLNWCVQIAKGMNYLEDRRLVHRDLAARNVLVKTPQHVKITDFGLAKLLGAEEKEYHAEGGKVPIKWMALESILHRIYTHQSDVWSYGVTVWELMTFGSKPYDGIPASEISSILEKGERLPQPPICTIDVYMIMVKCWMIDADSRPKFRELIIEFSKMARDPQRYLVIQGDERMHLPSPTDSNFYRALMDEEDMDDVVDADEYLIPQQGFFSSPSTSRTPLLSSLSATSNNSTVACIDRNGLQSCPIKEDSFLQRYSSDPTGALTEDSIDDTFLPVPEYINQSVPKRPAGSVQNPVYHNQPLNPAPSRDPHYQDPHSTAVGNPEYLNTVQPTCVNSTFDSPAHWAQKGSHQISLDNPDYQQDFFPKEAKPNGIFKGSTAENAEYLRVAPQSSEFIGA

Question: How did the IC50 turn out when CCN(CC)C/C=C/C(=O)N1CCc2c(sc3ncnc(N[C@H](CO)c4ccccc4)c23)C1 was run?
Answer: Its IC50 is 500 to 2500 nM.

Question: C[C@@H](Nc1ncnc2sc3c(c12)CCN(C(=O)/C=C/CN(CCO)CCO)C3)c1ccccc1 was tested. Which IC50 did it give?
Answer: Its IC50 is 500 to 2500 nM.

Question: How did the IC50 turn out when O=C(/C=C/CN1CCCCC1)N1CCc2c(sc3ncnc(N[C@H](CO)c4ccccc4)c23)C1 was run?
Answer: Its IC50 is 500 to 2500 nM.

Question: With C=CC(=O)N1CCc2c(sc3ncnc(N[C@H](CCO)c4ccccc4)c23)C1 as the compound, how does the IC50 read?
Answer: Its IC50 is 10 to 499 nM.

Question: C=CC(=O)N1CCc2c(sc3ncnc(N[C@@H](CCO)c4ccccc4)c23)C1 was tested. Which IC50 did it give?
Answer: The IC50 was 500 to 2500 nM.

Question: For CCN(CC)C/C=C/C(=O)N1CCc2c(sc3ncnc(N[C@H](C)c4ccccc4)c23)C1, which IC50 is on record?
Answer: Its IC50 is 500 to 2500 nM.

Question: CN(C)C/C=C/C(=O)N1CCc2c(sc3ncnc(N[C@H](CO)c4ccccc4)c23)C1 was tested. Which IC50 did it give?
Answer: The IC50 was 10 to 499 nM.

Question: CC#CC(=O)Nc1cccc(-c2c(-c3ccccc3)oc3ncnc(N[C@H](CO)c4ccccc4)c23)c1 was tested. Which IC50 did it give?
Answer: The IC50 was 500 to 2500 nM.

Question: With CN(C)C/C=C/C(=O)N1CCc2c(sc3ncnc(N[C@H](COCc4ccccc4F)c4ccccc4)c23)C1 as the compound, how does the IC50 read?
Answer: Its IC50 is 500 to 2500 nM.

Question: C=CC(=O)N1CCc2c(sc3ncnc(N[C@H](COCc4ccccc4)c4ccccc4)c23)C1 was tested. Which IC50 did it give?
Answer: The IC50 was 10 to 499 nM.

Question: For C=CC(=O)N1CCc2c(sc3ncnc(N[C@H](COCc4cccc(F)c4)c4ccccc4)c23)C1, which IC50 is on record?
Answer: Its IC50 is 10 to 499 nM.

Question: CN(C)C/C=C/C(=O)Nc1cccc(-c2c(-c3ccccc3)oc3ncnc(N[C@H](CO)c4ccccc4)c23)c1 was tested. Which IC50 did it give?
Answer: Its IC50 is 10 to 499 nM.

Question: With C=CC(=O)Nc1cccc(-c2c(-c3ccccc3)oc3ncnc(N[C@H](COC(=O)C=C)c4ccccc4)c23)c1 as the compound, how does the IC50 read?
Answer: Its IC50 is 10 to 499 nM.

Question: Which IC50 does the source give for CN(C)C/C=C/C(=O)N1CCc2c(sc3ncnc(N[C@H](COCc4ccccn4)c4ccccc4)c23)C1 here?
Answer: Its IC50 is 500 to 2500 nM.

Question: How did the IC50 turn out when C=CC(=O)N1CCc2c(sc3ncnc(N[C@H](CC)c4ccccc4)c23)C1 was run?
Answer: The IC50 was 500 to 2500 nM.

Question: Which IC50 does the source give for O=C(/C=C/CN1CCOCC1)N1CCc2c(sc3ncnc(N[C@H](CO)c4ccccc4)c23)C1 here?
Answer: The IC50 was 500 to 2500 nM.

Question: Which IC50 does the source give for CNC/C=C/C(=O)N1CCc2c(sc3ncnc(N[C@H](C)c4ccccc4)c23)C1 here?
Answer: Its IC50 is 500 to 2500 nM.

Question: Which IC50 does the source give for C=CC(=O)N1CCc2c(sc3ncnc(N[C@H](COCc4cccc(OC)c4)c4ccccc4)c23)C1 here?
Answer: Its IC50 is 10 to 499 nM.

Each compound was assayed against EGFR (human) (UniProt P00533). Conditions: hcc827.
Sequence of EGFR (human) (P00533 whole entry, looked up): as the sequence (P00533 whole entry, looked up, change not shown) above

Question: Which IC50 does the source give for CC[C@@H](Nc1ncnc2sc3c(c12)CCCC3)c1ccccc1 here?
Answer: Its IC50 is 301 to 999 nM.

Question: How did the IC50 turn out when CCN(CC)C/C=C/C(=O)N1CCc2c(sc3ncnc(N[C@H](CO)c4ccccc4)c23)C1 was run?
Answer: Its IC50 is 1 to 99 nM.

Question: For C[C@@H](Nc1ncnc2sc3c(c12)CCN(C(=O)/C=C/CN=[N+]=[N-])C3)c1ccccc1, which IC50 is on record?
Answer: Its IC50 is 1 to 99 nM.

Question: C[C@@H](Nc1ncnc2sc3c(c12)CCN(C(=O)/C=C/CN(CCO)CCO)C3)c1ccccc1 was tested. Which IC50 did it give?
Answer: Its IC50 is 1 to 99 nM.

Question: C=CC(=O)Nc1cccc(-c2csc3ncnc(N[C@H](CO)c4ccccc4)c23)c1 was tested. Which IC50 did it give?
Answer: Its IC50 is 1 to 99 nM.

Question: How did the IC50 turn out when CCN(CC)C/C=C/C(=O)N1CCc2c(sc3ncnc(N[C@H](COC)c4ccccc4)c23)C1 was run?
Answer: Its IC50 is 1 to 99 nM.

Question: With C=CC(=O)Nc1ccc(-c2c(-c3ccccc3)oc3ncnc(N[C@H](C)c4ccccc4)c23)cc1 as the compound, how does the IC50 read?
Answer: Its IC50 is 1 to 99 nM.

Question: How did the IC50 turn out when O=C(/C=C/CN1CCCCC1)N1CCc2c(sc3ncnc(N[C@H](CO)c4ccccc4)c23)C1 was run?
Answer: Its IC50 is 1 to 99 nM.

Question: Which IC50 does the source give for CCOC(=O)/C=C/C(=O)N1CCc2c(sc3ncnc(N[C@H](CO)c4ccccc4)c23)C1 here?
Answer: Its IC50 is 1 to 99 nM.

Question: Which IC50 does the source give for C=CC(=O)N1CCc2c(sc3ncnc(N[C@H](CCO)c4ccccc4)c23)C1 here?
Answer: The IC50 was 1 to 99 nM.

Question: With C=CC(=O)N1CCc2c(sc3ncnc(N[C@@H](CCO)c4ccccc4)c23)C1 as the compound, how does the IC50 read?
Answer: Its IC50 is 301 to 999 nM.

Question: For CCN(CC)C/C=C/C(=O)N1CCc2c(sc3ncnc(N[C@H](C)c4ccccc4)c23)C1, which IC50 is on record?
Answer: Its IC50 is 1 to 99 nM.

Question: CN(C)C/C=C/C(=O)N1CCc2c(sc3ncnc(N[C@H](CO)c4ccccc4)c23)C1 was tested. Which IC50 did it give?
Answer: The IC50 was 1 to 99 nM.

Question: Cc1sc2ncnc(N[C@H](CO)c3ccccc3)c2c1C was tested. Which IC50 did it give?
Answer: Its IC50 is 301 to 999 nM.

Question: How did the IC50 turn out when C[C@@H](Nc1ncnc2sc3c(c12)CCN(C(=O)/C=C/CN(C)C)C3)c1ccc(Br)cc1 was run?
Answer: The IC50 was 1 to 99 nM.

Question: CC(=O)Nc1cccc(-c2c(-c3ccccc3)oc3ncnc(N[C@H](CO)c4ccccc4)c23)c1 was tested. Which IC50 did it give?
Answer: Its IC50 is 100 to 300 nM.

Question: For CN(C)C/C=C/C(=O)N1CCc2c(sc3ncnc(N[C@H](CO[Si](C)(C)C(C)(C)C)c4ccccc4)c23)C1, which IC50 is on record?
Answer: The IC50 was 301 to 999 nM.

Question: How did the IC50 turn out when CC#CC(=O)Nc1cccc(-c2c(-c3ccccc3)oc3ncnc(N[C@H](CO)c4ccccc4)c23)c1 was run?
Answer: Its IC50 is 1 to 99 nM.

Question: With CN(C)C/C=C/C(=O)N1CCc2c(sc3ncnc(N[C@H](COCc4ccccc4F)c4ccccc4)c23)C1 as the compound, how does the IC50 read?
Answer: Its IC50 is 1 to 99 nM.

Question: For C=CC(=O)N1CCc2c(sc3ncnc(N[C@H](COCc4ccccc4)c4ccccc4)c23)C1, which IC50 is on record?
Answer: The IC50 was 1 to 99 nM.

Question: Which IC50 does the source give for C=CC(=O)N1CCc2c(sc3ncnc(N[C@H](COCc4cccc(F)c4)c4ccccc4)c23)C1 here?
Answer: The IC50 was 1 to 99 nM.

Question: With CN(C)C/C=C/C(=O)Nc1cccc(-c2c(-c3ccccc3)oc3ncnc(N[C@H](CO)c4ccccc4)c23)c1 as the compound, how does the IC50 read?
Answer: The IC50 was 1 to 99 nM.

Question: Which IC50 does the source give for CCN(C/C=C/C(=O)N1CCc2c(sc3ncnc(N[C@H](C)c4ccccc4)c23)C1)CCO here?
Answer: Its IC50 is 1 to 99 nM.

Question: CC[C@@H](Nc1ncnc2oc(-c3ccccc3)c(-c3ccccc3)c12)c1ccccc1 was tested. Which IC50 did it give?
Answer: The IC50 was 301 to 999 nM.

Question: With C[C@@H](Nc1ncnc2sc3c(c12)CCN(C(=O)/C=C/CN(C)CCO)C3)c1ccccc1 as the compound, how does the IC50 read?
Answer: Its IC50 is 1 to 99 nM.

Question: Which IC50 does the source give for CN(C)C/C=C/C(=O)N1CCc2c(sc3ncnc(N[C@H](COCc4ccccn4)c4ccccc4)c23)C1 here?
Answer: The IC50 was 1 to 99 nM.

Question: Which IC50 does the source give for C=CC(=O)N1CCc2c(sc3ncnc(N[C@H](CC)c4ccccc4)c23)C1 here?
Answer: Its IC50 is 1 to 99 nM.

Question: With O=C(/C=C/CN1CCOCC1)N1CCc2c(sc3ncnc(N[C@H](CO)c4ccccc4)c23)C1 as the compound, how does the IC50 read?
Answer: Its IC50 is 1 to 99 nM.

Question: With COc1ccc(-c2c(-c3ccccc3)oc3ncnc(N[C@H](CO)c4ccccc4)c23)cc1 as the compound, how does the IC50 read?
Answer: Its IC50 is 100 to 300 nM.

Question: CNC/C=C/C(=O)N1CCc2c(sc3ncnc(N[C@H](C)c4ccccc4)c23)C1 was tested. Which IC50 did it give?
Answer: The IC50 was 1 to 99 nM.

Question: Which IC50 does the source give for CCC[C@@H](Nc1ncnc2sc3c(c12)CCN(C(=O)/C=C/CN(C)C)C3)c1ccccc1 here?
Answer: Its IC50 is 1 to 99 nM.

Question: CN(C)C/C=C/C(=O)N1CCc2c(sc3ncnc(N[C@H](CO)Cc4ccccc4)c23)C1 was tested. Which IC50 did it give?
Answer: Its IC50 is 1 to 99 nM.

Question: With OC[C@@H](Nc1ncnc2oc(-c3ccccc3)c(-c3ccoc3)c12)c1ccccc1 as the compound, how does the IC50 read?
Answer: The IC50 was 100 to 300 nM.

Question: With OC[C@@H](Nc1ncnc2sc3c(c12)CCCC3)c1ccccc1 as the compound, how does the IC50 read?
Answer: Its IC50 is 100 to 300 nM.

Question: Which IC50 does the source give for C=CC(=O)N1CCc2c(sc3ncnc(N[C@H](COCc4cccc(OC)c4)c4ccccc4)c23)C1 here?
Answer: Its IC50 is 1 to 99 nM.

Question: How did the IC50 turn out when OC[C@@H](Nc1ncnc2oc(-c3ccccc3)c(-c3ccco3)c12)c1ccccc1 was run?
Answer: The IC50 was 301 to 999 nM.

Question: With C=CC(=O)Nc1cccc(-c2cc3c(N[C@H](CO)c4ccccc4)ncnc3s2)c1 as the compound, how does the IC50 read?
Answer: Its IC50 is 100 to 300 nM.

Question: How did the IC50 turn out when C=C(CN(C)C)C(=O)N1CCc2c(sc3ncnc(N[C@H](CO)c4ccccc4)c23)C1 was run?
Answer: Its IC50 is 1 to 99 nM.

Question: How did the IC50 turn out when CN(C)C/C=C/C(=O)N1CCc2c(sc3ncnc(N[C@H](CCOCc4ccccc4F)c4ccccc4)c23)C1 was run?
Answer: The IC50 was 1 to 99 nM.

Question: For CC(=O)OC/C=C/C(=O)N1CCc2c(sc3ncnc(N[C@H](C)c4ccccc4)c23)C1, which IC50 is on record?
Answer: The IC50 was 1 to 99 nM.

Question: CN(C)C/C=C/C(=O)N1CCc2c(sc3ncnc(N[C@H](COCc4ccncc4)c4ccccc4)c23)C1 was tested. Which IC50 did it give?
Answer: The IC50 was 1 to 99 nM.

Question: With COC(=O)[C@@H](Nc1ncnc2oc(-c3ccccc3)c(-c3ccccc3)c12)c1ccccc1 as the compound, how does the IC50 read?
Answer: Its IC50 is 301 to 999 nM.

Question: Which IC50 does the source give for C=CC(=O)N1CCc2c(sc3ncnc(N[C@H](CO[Si](C)(C)C(C)(C)C)c4ccccc4)c23)C1 here?
Answer: The IC50 was 301 to 999 nM.

Question: C=CC(=O)Nc1ccc(-c2c(-c3ccccc3)oc3ncnc(N[C@H](CO)c4ccccc4)c23)cc1 was tested. Which IC50 did it give?
Answer: Its IC50 is 301 to 999 nM.

Question: With CC(C)NC/C=C/C(=O)N1CCc2c(sc3ncnc(N[C@H](C)c4ccccc4)c23)C1 as the compound, how does the IC50 read?
Answer: Its IC50 is 1 to 99 nM.

Question: With CC[C@@H](Nc1ncnc2oc(-c3ccccc3)cc12)c1ccccc1 as the compound, how does the IC50 read?
Answer: The IC50 was 301 to 999 nM.

Question: How did the IC50 turn out when CC(=O)OC[C@@H](Nc1ncnc2oc(-c3ccccc3)c(Br)c12)c1ccccc1 was run?
Answer: The IC50 was 301 to 999 nM.

Question: With C[C@@H](Nc1ncnc2sc3c(c12)CCN(C(=O)/C=C/CNN1CCCCC1)C3)c1ccccc1 as the compound, how does the IC50 read?
Answer: The IC50 was 1 to 99 nM.

Question: Which IC50 does the source give for CN(C)C/C=C/C(=O)N1CCc2c(sc3ncnc(N[C@H](CCO)c4ccccc4)c23)C1 here?
Answer: Its IC50 is 1 to 99 nM.

Question: How did the IC50 turn out when CN(C)C/C=C/C(=O)N1CCc2c(sc3ncnc(N[C@H](COCc4cccnc4)c4ccccc4)c23)C1 was run?
Answer: The IC50 was 1 to 99 nM.

Question: Which IC50 does the source give for C[C@@H](Nc1ncnc2sc3c(c12)CCN(C(=O)/C=C/CNc1ccccc1)C3)c1ccccc1 here?
Answer: Its IC50 is 301 to 999 nM.

Question: How did the IC50 turn out when CN(C)C/C=C/C(=O)N1CCc2c(sc3ncnc(N[C@H](COCc4ccc(F)cc4)c4ccccc4)c23)C1 was run?
Answer: Its IC50 is 1 to 99 nM.

Question: For OC[C@@H](Nc1ncnc2oc(-c3ccccc3)c(-c3ccccc3)c12)c1ccccc1, which IC50 is on record?
Answer: The IC50 was 301 to 999 nM.
